Converted amounts (≈) assume the structure as drawn. Like-named read-outs stand apart in the source and are kept apart here.
Key:
[1] = test system: clinical isolates of Vancomycin-resistant Enterococcus faecium (VRE); test: MIC determination at Fidelta, clinical isolates; format: cell-based
Description: (§1) 3.4.2 MIC Determination at Fidelta (Croatia)
(§2) Tested reference compounds. Amikacin sulfate (Cat. No. 01693, Chem-Impex), Gentamicin sulfate (Cat. No. G4918, Sigma Aldrich), Ceftazidime Pentahydrate (Cat. No. 1098130, USP), Meropenem (Cat. No. 1392454, USP), Tobramycin (Cat. No. 1667508, USP).
(§3) Microbial strains. Klebsiella pneumoniae KP-1919 (abdomen), Klebsiella pneumoniae KP-1935 (urine), Klebsiella pneumoniae KP-1936 (abscess), Klebsiella pneumoniae KP-1937 (blood), Klebsiella pneumoniae KP-1942 (urine), Klebsiella pneumoniae KP-1944 (blood), Klebsiella pneumoniae KP-2027 (tracheal aspirate), Klebsiella pneumoniae KP-2029 (urine), Klebsiella pneumoniae KP-2030 (trachea), Klebsiella pneumoniae KP-2031 (skin), Klebsiella pneumoniae KP-2032 (urine), Klebsiella pneumoniae KP-2033 (urine), Klebsiella pneumoniae KP-2034 (urine), Klebsiella pneumoniae KP-2035 (urine), Klebsiella pneumoniae KP-2036 (urine), Klebsiella pneumoniae KP-2037 (urine), Klebsiella pneumoniae ATCC 43816, Pseudomonas aeruginosa PA-1948 (wound), Pseudomonas aeruginosa PA-1949 (urine), Pseudomonas aeruginosa PA-1950 (sputum), Pseudomonas aeruginosa PA-1952 (wound), Pseudomonas aeruginosa PA-1953 (urine), Pseudomonas aeruginosa PA-1954 (sputum), Pseudomonas aeruginosa PA-1967 (blood), Pseudomonas aeruginosa ATCC27853, Acinetobacter baumannii AB-1931 (urine), Acinetobacter baumannii AB-1932 (urine), Acinetobacter baumannii AB-2017 (bronchial aspirate), Acinetobacter baumannii AB-2018 (skin), Acinetobacter baumannii AB-2019 (bronchial aspirate), Acinetobacter baumannii AB-1964 (blood), Acinetobacter baumannii AB-2025 (skin), Acinetobacter baumannii AB-2026 (skin), Acinetobacter baumannii ATCC17978, methicillin-resistant Staphylococcus aureus MRSA-1995 (liquor), methicillin-resistant Staphylococcus aureus MRSA-1998 (wound), methicillin-resistant Staphylococcus aureus MRSA-1999 (skin), methicillin-resistant Staphylococcus aureus MRSA-2003 (wound), vancomycin-resistant Enterococcus faecium VRE-2005 (urine), vancomycin-resistant Enterococcus faecium VRE-2006 (urine), vancomycin-resistant Enterococcus faecium VRE-2007 (urine), vancomycin-resistant Enterococcus faecium VRE-2008 (urine), vancomycin-resistant Enterococcus faecium VRE-2009 (urine), vancomycin-resistant Enterococcus faecium VRE-2010 (urine), vancomycin-resistant Enterococcus faecium VRE-2011 (rectum), vancomycin-resistant Enterococcus faecium VRE-2012 (rectum), vancomycin-resistant Enterococcus faecium VRE-2013 (rectum).
(§4) Culture media and equipment. BBL™ Mueller Hinton Broth (REF 275730, Lot. 7009699, Becton Dickinson); Mueller Hinton Agar 2 (Ref. No. 97580-500G-F, Lot. No. BCBV4646, Sigma); Cellstar, 96-well plates, U-bottom (Cat. No. 650180, Lot. No. E14123EB, Greiner Bio-one); 96-well deep well plate, 1 mL (Cat. No. 278606, Nunc); Incubator (Binder); Laminar flow (Thermo Scientific); BioPhotometer (Eppendorf); DEN-1B (McFarland Densitometer, Biosan); McFarland standards (polymer microparticle suspension, Biosan).
(§5) Compound preparation. For testing, 5 mg/mL DMSO solutions of the test compounds and reference antibiotics were used. Out of these DMSO solutions, 43.5 μL was transferred to 1656.5 μL of MH media in a deep well plate. Out of these working solutions 100 μL was transferred to wells in the third column of 96-well plates. Plates are previously filled with 50 μL of MH media in all wells except for the wells in the third column. After compound and antibiotic addition, 50 μL was transferred from the third to the fourth column, then from the fourth to the fifth and so on. In this manner, the compounds and antibiotics were plated in 96-well plate in serial two-fold dilutions giving a final concentration range of 64-0.125 μg/mL.
(§6) Inoculum preparation. Designations used for clinical isolates were from Fidelta strain collection bank. Microorganisms used were all revived from skim milk storage at −70° C. by plating them on MH agar plates.

[2] = test system: clinical isolates of methicillin-resistant Staphylococcus aureus (MRSA); test: MIC determination at Fidelta, clinical isolates; format: cell-based
Description: as §1, §2, §3, §4, §5, §6

[3] = test system: clinical isolates of multidrug-resistant Klebsiella pneumoniae (and ATCC43816); test: MIC determination at Fidelta, clinical isolates; format: cell-based; details: Klebsiella pneumoniae
Description: as §1, §2, §3, §4, §5, §6

[4] = test system: Klebsiella pneumoniae ATCC 43816; test: Murine neutropenic thigh model of infection; format: in vivo, male CD-1 mice
Protocol: 4.1 Murine Neutropenic Thigh Model of Infection (Kiebsiella Pneumoniae ATCC 43816)
A comparator antibiotic (meropenem; Cat. No. 1392454, USP) was used during both studies.
During the first study ABX5006 and ABX5020 were tested at a dose of 64 mg/kg (group 5 for ABX5006, group 8 for ABX5020), 16 mg/kg (group 4 for ABX5006, group 7 for ABX5020) and of 4 mg/kg (group 3 for ABX5006, group 6 for ABX5020).
During a second study ABX5026 and ABX5039 were tested at a dose of 4 mg/kg (group 5 for ABX5026, group 8 for ABX5039), 1 mg/kg (group 4 for ABX5026, group 7 for ABX5039) and of 0.25 mg/kg (group 3 for ABX5026, group 6 for ABX5039).
Animals were dosed subcutaneously (10 mL/kg) twice with 8 h interval. […] A CFU count below limit of detection (LOD=1.0×10^2 CFU/mL) was substituted with the value 0 in order to perform statistical analysis.
Inoculum preparation for intramuscular infection. The strain was streaked out onto MH agar.

[5] = ATCC43816, KP-1919, Abdomen/VIM, ESBL
[6] = ATCC43816, KP-1935, Urine/ESBL, NDM
[7] = ATCC43816, KP-1936, Abscess/NDM
[8] = ATCC43816, KP-1937, Blood/VIM, ESBL
[9] = ATCC43816, KP-1942, Urine (catheter)/VIM
[10] = ATCC43816, KP-2027, Tracheal aspirate/ESBL, OXA-48, ColR
[11] = ATCC43816, KP-2029, Urine/ESBL, OXA-48
[12] = ATCC43816, KP-2030, Trachea/ESBL, OXA-48
[13] = ATCC43816, KP-2031, Skin/ESBL, OXA-48
[14] = ATCC43816, KP-2032, Urine/ESBL, OXA-48
[15] = ATCC43816, KP-2033, Urine/OXA-A8
[16] = ATCC43816, KP-2034, Urine/ESBL, OXA-48
[17] = ATCC43816, KP-2035, Urine/ESBL, OXA-48
[18] = ATCC43816, KP-2037, Urine/ESBL, OXA-48

| Compound | MIC90 ([1]; VRE-2005, Urine) [mg/L] | MIC90 ([1]; VRE-2006, Urine) [mg/L] | MIC90 ([1]; VRE-2007, Urine) [mg/L] | MIC90 ([1]; VRE-2008, Urine) [mg/L] | MIC90 ([1]; VRE-2009, Urine) [mg/L] | MIC90 ([1]; VRE-2010, Urine) [mg/L] | MIC90 ([1]; VRE-2011, Rectum) [mg/L] | MIC90 ([1]; VRE-2012, Rectum) [mg/L] | MIC90 ([1]; VRE-2013, Rectum) [mg/L] | MIC90 ([2]; MRSA-1995, Liquor) [mg/L] | MIC90 ([2]; MRSA-1998, Wound) [mg/L] | MIC90 ([2]; MRSA-1999, Skin) [mg/L] | MIC90 ([2]; MRSA-2003, Wound) [mg/L] | MIC90 [3, 5] [mg/L] | MIC90 [3, 6] [mg/L] | MIC90 [3, 7] [mg/L] | MIC90 [3, 8] [mg/L] | MIC90 [3, 9] [mg/L] | MIC90 ([3]; ATCC43816, KP-1944, Blood/NDM) [mg/L] | MIC90 [3, 10] [mg/L] | other results |
| --- | --- | --- | --- | --- | --- | --- | --- | --- | --- | --- | --- | --- | --- | --- | --- | --- | --- | --- | --- | --- | --- |
| CC(C)(O/N=C(\C(=O)N[C@@H]1C(=O)N2C(C(=O)[O-])=C(C[n+]3ccccc3)CS[C@H]12)c1csc(N)n1)C(=O)O [Ceftazidime, reference compound] | > 64 | > 64 | > 64 | > 64 | > 64 | > 64 | > 64 | > 64 | > 64 | > 64 | > 64 | > 64 | > 64 | 64 (≈ 117 µM) | > 64 | > 64 | > 64 | > 64 | > 64 | > 64 | MIC90 ([3]; ATCC43816, K. pneumoniae ATCC43816 strain, read-out: MIC 90): < 0.125 mg/L; MIC90 [3, 11]: > 64 mg/L; MIC90 [3, 12]: > 64 mg/L; MIC90 [3, 13]: > 64 mg/L; MIC90 [3, 14]: > 64 mg/L; MIC90 [3, 15]: > 64 mg/L; MIC90 [3, 16]: > 64 mg/L; MIC90 [3, 17]: > 64 mg/L; MIC90 ([3]; ATCC43816, KP-2036, Urine/ESBL): > 64 mg/L; MIC90 [3, 18]: > 64 mg/L |
| C[C@@H](O)[C@H]1C(=O)N2C(C(=O)O)=C(S[C@@H]3CN[C@H](C(=O)N(C)C)C3)[C@H](C)[C@H]12 [Meropenem, meropenem, reference compound] | > 64 | > 64 | > 64 | > 64 | > 64 | > 64 | > 64 | > 64 | > 64 | 64 (≈ 167 µM) | 8 (≈ 20.9 µM) | 64 (≈ 167 µM) | 8 (≈ 20.9 µM) | 4 (≈ 10.4 µM) | 32 (≈ 83.4 µM) | > 64 | 32 (≈ 83.4 µM) | 64 (≈ 167 µM) | > 64 | 4 (≈ 10.4 µM) | MIC90 ([3]; ATCC43816): < 0.125 mg/L; MIC90 [3, 11]: 4 mg/L (≈ 10.4 µM); MIC90 [3, 12]: 4 mg/L (≈ 10.4 µM); MIC90 [3, 13]: 2 mg/L (≈ 5.22 µM); MIC90 [3, 14]: 2 mg/L (≈ 5.22 µM); MIC90 [3, 15]: 16 mg/L (≈ 41.7 µM); MIC90 [3, 16]: 16 mg/L (≈ 41.7 µM); MIC90 [3, 17]: 2 mg/L (≈ 5.22 µM); MIC90 ([3]; ATCC43816, KP-2036, Urine/ESBL): 16 mg/L (≈ 41.7 µM); MIC90 [3, 18]: 2 mg/L (≈ 5.22 µM); Change from vehicle group ([4]; Log CFU/g thigh, dose 100 mg/kg SC BID): −4.56; Avg. Log CFU/g thigh ([4]; dose 100 mg/kg SC BID, 24 h post infection): 4.95 Log CFU/g; Change from vehicle group ([4]; dose 100 mg/kg, SC, BID, Avg. Log CFU/g thigh vs vehicle): 8.17; Avg. Log CFU/g ([4]; dose 100 mg/kg, SC, BID, thigh, 24 hours post infection): 1.61 Log CFU/g; survival rate ([4]; first study, vehicle group 50% mortality): 100% |

From US20220127297A1, “Novel Antibacterial 3"-Derivatives Of 4,6-Disubstituted 2,5-Dideoxystreptamine Aminoglycoside Antibiotics” (AGILeBiotics B.V., priority 2018, published 2022)
